US20260285850A1, “SUBSTITUTED OXAZOLIDINONES AND IMIDAZOLINONES AS HERBICIDES” (FMC CORPORATION, priority 2023, published 2026)

Key:
Type in all cases: in vivo
corn (Zea mays) [1] = experiment: Test A postemergence application, visual injury rating 0-100; settings: 10 days
Procedure, shortened: (§1)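 Grow plants in loam soil blended with sand. Apply formulated compound (non-phytotoxic solvent, surfactant) as a directed soil spray before emergence, or to plants at the one- to two-leaf stage after emergence. Hold in greenhouse 10 days, then rate injury visually versus untreated controls on a 0-100 scale.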

[2] = system: barnyardgrass (Echinochloa crus-galli); experiment: as above; settings: 10 days
Procedure, shortened: as §1

[3] = system: galium (catchweed bedstraw, Galium aparine); experiment: as above; settings: 10 days
Procedure, shortened: as §1

[4] = system: oat, wild (wild oat, Avena fatua); experiment: as above; settings: 10 days
Procedure, shortened: as §1

kochia (Bassia scoparia) [5] = experiment: as above; settings: 10 days
Procedure, shortened: as §1

soybean (Glycine max) [6] = experiment: as above; settings: 10 days
Procedure, shortened: as §1

[7] = system: palmer (palmer amaranth, palmer pigweed, Amaranthus palmeri); experiment: as above; settings: 10 days
Procedure, shortened: as §1

[8] = system: green foxtail (Setaria viridis); experiment: as above; settings: 10 days
Procedure, shortened: as §1

[9] = system: ragweed (common ragweed, Ambrosia artemisiifolia); experiment: as above; settings: 10 days
Procedure, shortened: as §1

[10] = system: wheat (Triticum aestivum); experiment: as above; settings: 10 days
Procedure, shortened: as §1

[11] = system: horseweed (Erigeron canadensis); experiment: as above; settings: 10 days
Procedure, shortened: as §1

[12] = system: blackgrass (Alopecurus myosuroides); experiment: as above; settings: 10 days
Procedure, shortened: as §1

[13] = system: ryegrass, Italian (italian ryegrass, Lolium multiflorum); experiment: as above; settings: 10 days
Procedure, shortened: as §1

corn (Zea mays) [14] = experiment: Test A preemergence soil spray, visual injury rating 0-100; settings: 10 days, 0 = no effect, 100 = complete control
Procedure, shortened: as §1

[15] = system: barnyardgrass (Echinochloa crus-galli); experiment: as above; settings: 10 days, 0 = no effect, 100 = complete control
Procedure, shortened: as §1

[16] = system: oat, wild (wild oat, Avena fatua); experiment: as above; settings: 10 days, 0 = no effect, 100 = complete control
Procedure, shortened: as §1

kochia (Bassia scoparia) [17] = experiment: as above; settings: 10 days, 0 = no effect, 100 = complete control
Procedure, shortened: as §1

soybean (Glycine max) [18] = experiment: as above; settings: 10 days, 0 = no effect, 100 = complete control
Procedure, shortened: as §1

[19] = system: palmer (palmer amaranth, palmer pigweed, Amaranthus palmeri); experiment: as above; settings: 10 days, 0 = no effect, 100 = complete control
Procedure, shortened: as §1

[20] = system: green foxtail (Setaria viridis); experiment: as above; settings: 10 days, 0 = no effect, 100 = complete control
Procedure, shortened: as §1

[21] = system: ragweed (common ragweed, Ambrosia artemisiifolia); experiment: as above; settings: 10 days, 0 = no effect, 100 = complete control
Procedure, shortened: as §1

[22] = system: wheat (Triticum aestivum); experiment: as above; settings: 10 days, 0 = no effect, 100 = complete control
Procedure, shortened: as §1

[23] = system: blackgrass (Alopecurus myosuroides); experiment: as above; settings: 10 days, 0 = no effect, 100 = complete control
Procedure, shortened: as §1

rice (Oryza sativa) = experiment: Test B flooded paddy test, visual plant response rating 0-100; settings: 250 g ai/ha, Flood, applied to paddy water, evaluated after 13 days
Procedure, shortened: (§2)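 Visual scores versus untreated controls were recorded 13 days after treatment of greenhouse-held plants. At the 2-leaf stage, pots were flooded 3 cm above the soil surface and compounds added straight to the water.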

[24] = system: sedge, umbrella (small-flower umbrella sedge, Cyperus difformis); experiment: as above; settings: 250 g ai/ha, Flood, applied to paddy water, evaluated after 13 days
Procedure, shortened: as §2

[25] = system: ducksalad (Heteranthera limosa); experiment: as above; settings: 250 g ai/ha, Flood, applied to paddy water, evaluated after 13 days
Procedure, shortened: as §2

[26] = system: barnyardgrass (Echinochloa crusgalli); experiment: as above; settings: 250 g ai/ha, Flood, applied to paddy water, evaluated after 13 days
Procedure, shortened: as §2

[27] = 31 g ai/ha, postemergence, 0 = no effect, 100 = complete control
[28] = Postemergence, 125 g ai/ha, 0 is no effect, 100 is complete control

## CC1(C(=O)NC2C=CC(C(=O)O)C2)CN(c2cc(F)cc(Cl)c2)C(=O)O1 (centres unmarked) [Compound 6]
Corn (Zea mays) [1]; [27]
  Corn plant response rating (0-100): 100
Corn (Zea mays) [1]; [28]
  Corn plant response rating (0 to 100 scale): 100
[2]; [27]
  Barnyardgrass plant response rating (0-100): 100
[2]; [28]
  Barnyardgrass plant response rating (0 to 100 scale): 100
[3]; [27]
  Galium plant response rating (0-100): 80
[3]; [28]
  Galium plant response rating (0 to 100 scale): 80
[4]; [27]
  Oat, Wild plant response rating (0-100): 90
[4]; [28]
  Oat, Wild plant response rating (0 to 100 scale): 100
Kochia (Bassia scoparia) [5]; [27]
  Kochia plant response rating (0-100): 80
Kochia (Bassia scoparia) [5]; [28]
  Kochia plant response rating (0 to 100 scale): 80
Soybean (Glycine max) [6]; [27]
  Soybean plant response rating (0-100): 80
Soybean (Glycine max) [6]; [28]
  Soybean plant response rating (0 to 100 scale): 80
[7]; [27]
  Amaranth, Palmer plant response rating (0-100): 90
[7]; [28]
  Amaranth, Palmer / Pigweed, Palmer plant response rating (0 to 100 scale): 90
[8]; [27]
  Foxtail, Green plant response rating (0-100): 90
[8]; [28]
  Foxtail, Green plant response rating (0 to 100 scale): 90
[9]; [27]
  Ragweed plant response rating (0-100): 60
[9]; [28]
  Ragweed plant response rating (0 to 100 scale): 80
[10]; [27]
  Wheat plant response rating (0-100): 90
[10]; [28]
  Wheat plant response rating (0 to 100 scale): 90
[11]; [27]
  Horseweed plant response rating (0-100): 40
[11]; [28]
  Horseweed plant response rating (0 to 100 scale): 90
[12]; [27]
  Blackgrass plant response rating (0-100): 80
[12]; [28]
  Blackgrass plant response rating (0 to 100 scale): 90
[13]; [27]
  Ryegrass, Italian plant response rating (0-100): 80
[13]; [28]
  Ryegrass, Italian plant response rating (0 to 100 scale): 90
Corn (Zea mays) [14]; 31 g ai/ha
  Corn plant response rating (0-100): 30
Corn (Zea mays) [14]; 125 g ai/ha
  Corn plant response rating (0 to 100 scale): 90
[15]; 31 g ai/ha
  Barnyardgrass plant response rating (0-100): 20
[15]; 125 g ai/ha
  Barnyardgrass plant response rating (0 to 100 scale): 100
[16]; 31 g ai/ha
  Oat, Wild plant response rating (0-100): 30
[16]; 125 g ai/ha
  Oat, Wild plant response rating (0 to 100 scale): 90
Kochia (Bassia scoparia) [17]; 31 g ai/ha
  Kochia plant response rating (0-100): 100
Kochia (Bassia scoparia) [17]; 125 g ai/ha
  Kochia plant response rating (0 to 100 scale): 100
Soybean (Glycine max) [18]; 31 g ai/ha
  Soybean plant response rating (0-100): 50
Soybean (Glycine max) [18]; 125 g ai/ha
  Soybean plant response rating (0 to 100 scale): 80
[19]; 31 g ai/ha
  Amaranth, Palmer plant response rating (0-100): 60
[19]; 125 g ai/ha
  Amaranth, Palmer plant response rating (0 to 100 scale): 90
[20]; 31 g ai/ha
  Foxtail, Green plant response rating (0-100): 50
[20]; 125 g ai/ha
  Foxtail, Green plant response rating (0 to 100 scale): 100
[21]; 31 g ai/ha
  Ragweed plant response rating (0-100): 0
[21]; 125 g ai/ha
  Ragweed plant response rating (0 to 100 scale): 40
[22]; 31 g ai/ha
  Wheat plant response rating (0-100): 50
[22]; 125 g ai/ha
  Wheat plant response rating (0 to 100 scale): 90
[23]; 31 g ai/ha
  Blackgrass plant response rating (0-100): 30
[23]; 125 g ai/ha
  Blackgrass plant response rating (0 to 100 scale): 60
Rice (Oryza sativa)
  Plant response rating, Rice (0 to 100 scale, 0 is no effect and 100 is complete control): 35
[24]
  Plant response rating, Sedge, Umbrella (0 to 100 scale, 0 is no effect and 100 is complete control): 95
[25]
  Plant response rating, Ducksalad (0 to 100 scale, 0 is no effect and 100 is complete control): 95
[26]
  Plant response rating, Barnyardgrass (0 to 100 scale, 0 is no effect and 100 is complete control): 70
